Experimental data taken from the NIST ThermoML archive (doi:10.1016/j.jct.2018.03.007).
Numbers after ± are expanded uncertainties.

Legend:
[1] = 100 kPa, Liquid; for speed of sound: Linear variable-path acoustic interferometer; for mass density: Vibrating tube method
[2] = xn = mol fraction of the nth substance listed; conditions: 100 kPa, Liquid, x2 = 0; for speed of sound: Linear variable-path acoustic interferometer; for mass density: Vibrating tube method

SMILES	mass density ([1]; 298.15 K) [kg/m3]	mass density ([1]; 303.15 K) [kg/m3]	mass density ([1]; 308.15 K) [kg/m3]	mass density ([1]; 313.15 K) [kg/m3]	speed of sound ([1]; 298.15 K, Frequency=2 MHz) [m/s]	speed of sound ([1]; 303.15 K, Frequency=2 MHz) [m/s]	speed of sound ([1]; 308.15 K, Frequency=2 MHz) [m/s]	speed of sound ([1]; 313.15 K, Frequency=2 MHz) [m/s]	mass density ([2]; 298.15 K) [kg/m3]	mass density ([2]; 303.15 K) [kg/m3]	mass density ([2]; 308.15 K) [kg/m3]	mass density ([2]; 313.15 K) [kg/m3]	further results
CCO [ethanol]	785.26 ± 2	780.98 ± 2	776.66 ± 2	772.28 ± 2									speed of sound ([1]; 298.15 K, Frequency=3 MHz): 1142.7 ± 1.5 m/s; speed of sound ([1]; 303.15 K, Frequency=3 MHz): 1125.3 ± 1.5 m/s; speed of sound ([1]; 308.15 K, Frequency=3 MHz): 1108.8 ± 1.5 m/s; speed of sound ([1]; 313.15 K, Frequency=3 MHz): 1091.5 ± 1.5 m/s
C[S+](C)[O-] [dimethyl sulfoxide]	1095.33 ± 2	1090.32 ± 2	1085.31 ± 2	1080.29 ± 2	1485 ± 1.7	1468.3 ± 1.7	1451.1 ± 1.7	1434.2 ± 1.7					
CCn1cc[n+](C)c1.O=S(=O)([O-])O [1-ethyl-3-methylimidazolium hydrogen sulfate]	1365.75 ± 2.5	1362.62 ± 2.5	1359.53 ± 2.5	1356.41 ± 2.5	1982.8 ± 2.8	1962.9 ± 2.8	1943.1 ± 2.8	1923.2 ± 2.8					
C[S+](C)[O-] [dimethyl sulfoxide] + CCn1cc[n+](C)c1.O=S(=O)([O-])O									1095.33 ± 2	1090.32 ± 2	1085.31 ± 2	1080.29 ± 2	speed of sound ([2]; 298.15 K, Frequency=2 MHz): 1485 ± 1.7 m/s; speed of sound ([2]; 303.15 K, Frequency=2 MHz): 1468.3 ± 1.7 m/s; speed of sound ([2]; 308.15 K, Frequency=2 MHz): 1451.1 ± 1.7 m/s; speed of sound ([2]; 313.15 K, Frequency=2 MHz): 1434.2 ± 1.7 m/s
CCCO [propan-1-ol]	799.96 ± 2	795.92 ± 2	791.82 ± 2	787.73 ± 2	1206.1 ± 1.6	1189.1 ± 1.6	1172.2 ± 1.6	1155.4 ± 1.6					
CCO [ethanol] + CCn1cc[n+](C)c1.O=S(=O)([O-])O									785.26 ± 2	780.98 ± 2	776.66 ± 2	772.28 ± 2	speed of sound ([2]; 298.15 K, Frequency=3 MHz): 1142.7 ± 1.5 m/s; speed of sound ([2]; 303.15 K, Frequency=3 MHz): 1125.3 ± 1.5 m/s; speed of sound ([2]; 308.15 K, Frequency=3 MHz): 1108.8 ± 1.5 m/s; speed of sound ([2]; 313.15 K, Frequency=3 MHz): 1091.5 ± 1.5 m/s
CCCO [propan-1-ol] + CCn1cc[n+](C)c1.O=S(=O)([O-])O									799.96 ± 2	795.92 ± 2	791.82 ± 2	787.73 ± 2	speed of sound ([2]; 298.15 K, Frequency=2 MHz): 1206.1 ± 1.6 m/s; speed of sound ([2]; 303.15 K, Frequency=2 MHz): 1189.1 ± 1.6 m/s; speed of sound ([2]; 308.15 K, Frequency=2 MHz): 1172.2 ± 1.6 m/s; speed of sound ([2]; 313.15 K, Frequency=2 MHz): 1155.4 ± 1.6 m/s
